{"source": "ChEMBL document CHEMBL3244295", "about": "“A ureido group containing analogue of oxytocin comprising eight amino acid residues” (J Med Chem, 1978)", "key": {"Oxytocin-like receptor": {"molecular_target": "T1, Oxytocin-like receptor (Gallus gallus, UniProt Q5D7U5)", "T1 sequence (Q5D7U5 whole entry)": "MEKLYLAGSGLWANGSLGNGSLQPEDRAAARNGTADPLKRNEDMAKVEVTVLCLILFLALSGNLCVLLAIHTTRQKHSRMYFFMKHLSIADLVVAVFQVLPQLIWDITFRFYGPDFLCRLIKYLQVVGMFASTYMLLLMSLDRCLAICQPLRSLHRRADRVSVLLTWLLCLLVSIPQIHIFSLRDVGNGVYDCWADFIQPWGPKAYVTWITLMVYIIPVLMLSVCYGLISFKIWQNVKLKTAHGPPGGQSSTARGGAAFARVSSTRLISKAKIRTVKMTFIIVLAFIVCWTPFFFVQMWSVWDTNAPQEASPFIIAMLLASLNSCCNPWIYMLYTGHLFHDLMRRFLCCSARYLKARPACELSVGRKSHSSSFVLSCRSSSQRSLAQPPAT", "assay": "Antagonist activity at oxytocin receptor in conscious chicken assessed as inhibition of oxytocin-induced vaspdepressor response", "conditions": "read-out: pA2 (converted)"}, "[1]": {"assay": "Uterotonic activity in virgin rat uterus", "type": "functional"}, "[2]": {"assay": "Uterotonic activity in virgin rat uterus relative to oxytocin", "type": "functional"}, "Rattus norvegicus": {"system": "Rattus norvegicus", "assay": "Antidiuretic activity in anesthetized rat assessed per mg", "type": "functional, Urine"}}, "note": "Residues, ends and D or L forms follow the SMILES beside them."}
{"smiles": "CC[C@H](C)[C@@H]1NC(=O)[C@H](Cc2ccc(O)cc2)NC(=O)[C@@H](N)C(C)(C)SSC[C@@H](C(=O)N2CCC[C@H]2C(=O)N[C@@H](CC(C)C)C(=O)NCC(N)=O)NC(=O)[C@H](CC(N)=O)NC(=O)[C@H](CCC(N)=O)NC1=O", "values": [{"measurement": "Kb", "setting": "Oxytocin-like receptor", "value": 31.6, "unit": "nM"}]}
{"smiles": "[H][C@@]1([C@@H](C)CC)NC(=O)[C@H](Cc2ccc(O)cc2)NC(=O)NCCCC[C@@H](C(=O)N2CCC[C@H]2C(=O)N[C@@H](CC(C)C)C(=O)NCC(N)=O)NC(=O)[C@H](CC(N)=O)NC(=O)[C@H](CCC(N)=O)NC1=O", "note": "(HELM PEPTIDE1{Y.I.Q.N.K.P.L.G.[am]}|CHEM1{[O=C([*:1])[*:2]]}$PEPTIDE1,CHEM1,1:R1-1:R1|PEPTIDE1,CHEM1,5:R3-1:R2$$$V2.0)", "values": [{"measurement": "Activity", "setting": "[1]", "value": 3.9, "unit": "U/mg"}, {"measurement": "Activity", "setting": "[2]", "value": 0.8, "unit": "%"}, {"measurement": "Kb", "setting": "Oxytocin-like receptor", "value": 53.7, "unit": "nM"}, {"measurement": "Activity", "setting": "Rattus norvegicus", "value": "<0.05", "unit": "U"}]}
